Assay results reported in patent US7772241B2, “Variolin derivatives and their use as antitumor agents” (Pharma Mar S.A., priority 2001, dated 2010).
Read-outs that look alike come from different tables or passages of the source.

Legend:
[1] = test system: K-562; assay: Inhibition of cells growth by colorimetric (SRB) assay, K-562
Summary of the method: (§1)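 Human tumour cells seeded at 5×10^3/well in RPMI 1640 10% FBS, attached 18 h, then exposed 48 h to samples at 10 to 10^−8 μg/ml in DMSO/EtOH/PBS (0.5:0.5:99). Growth read by SRB staining after TCA fixation, OD 490 nm, triplicate wells; GI, TGI and LC derived.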

[2] = test system: LNCaP; assay: Inhibition of cells growth by colorimetric (SRB) assay, LNCaP
Summary of the method: as §1

[3] = test system: IGROV-ET; assay: Inhibition of cells growth by colorimetric (SRB) assay, IGROV-ET
Summary of the method: as §1

[4] = test system: IGROV-1; assay: Inhibition of cells growth by colorimetric (SRB) assay, IGROV-1
Summary of the method: as §1

[5] = test system: A-549; assay: Inhibition of cells growth by colorimetric (SRB) assay, A-549
Summary of the method: as §1

[6] = test system: HT-29; assay: Inhibition of cells growth by colorimetric (SRB) assay, HT-29
Summary of the method: as §1

[7] = test system: SK-BR-3; assay: Inhibition of cells growth by colorimetric (SRB) assay, SK-BR-3
Source text: (§2) The finality of these assays is to interrupt the growth of a “in vitro” tumor cell culture by means a continued exhibition of the cells to the sample to be testing.
(§3) This form of the assay employs 96 well cell culture microplates of 9 mm diameter (Faircloth, 1988; Mosmann, 1983). Most of the cell lines are obtained from American Type Culture Collection (ATCC) derived from different human cancer types.
(§4) Cells are maintained in RPMI 1640 10% FBS, supplemented with 0.1 g/l penicillin and 0.1 g/l streptomycin sulphate and then incubated at 37° C., 5% CO2 and 98% humidity. For the experiments, cells were harvested from subconfluent cultures using trypsin and resuspended in fresh medium before plating.
(§5) Cells are seeded in 96 well microtiter plates, at 5×10^3 cells per well in aliquots of 195 μl medium, and they are allowed to attach to the plate surface by growing in drug free medium for 18 hours. Afterward, samples are added in aliquots of 5 μl in a ranging from 10 to 10^−8 μg/ml, dissolved in DMSO/EtOH/PBS (0.5:0.5:99). After 48 hours exposure, the antitumor effect are measured by the SRB methodology: cells are fixed by adding 50 μl of cold 50% (wt/vol) trichloroacetic acid (TCA) and incubating for 60 minutes at 4° C. Plates are washed with deionized water and dried. One hundred μl of SRB solution (0.4% wt/vol in 1% acetic acid) is added to each microtiter well and incubated for 10 minutes at room temperature. Unbound SRB is removed by washing with 1% acetic acid. Plates are air dried and bound stain is solubilized with Tris buffer. Optical densities are read on a automated spectrophotometric plate reader at a single wavelength of 490 nm.
(§6) The values for mean +/−SD of data from triplicate wells are calculated. Some parameters for cellular responses can be calculated: GI=growth inhibition, TGI=total growth inhibition (cytostatic effect) and LC=cell killing (cytotoxic effect).

[8] = test system: SK-MEL-28; assay: Inhibition of cells growth by colorimetric (SRB) assay, SK-MEL-28
Summary of the method: as §1

[9] = test system: DU-145; assay: Inhibition of cells growth by colorimetric (SRB) assay, DU-145
Summary of the method: as §1

[10] = test system: LoVo-Dox; assay: Inhibition of cells growth by colorimetric (SRB) assay, LoVo-Dox
Summary of the method: as §1

[11] = test system: LoVo; assay: Inhibition of cells growth by colorimetric (SRB) assay, LoVo
Summary of the method: as §1

[12] = test system: SK-OV-3; assay: Inhibition of cells growth by colorimetric (SRB) assay, SK-OV-3
Summary of the method: as §1

[13] = test system: HMEC1; assay: Inhibition of cells growth by colorimetric (SRB) assay, HMEC1; conditions: SRB assay, 48 hours exposure; for TGI H-MEC-1: in M (unit assumed); for GI50: read-out: GI50 H-MEC-1; for CC50: read-out: LC50 H-MEC-1
Source text: as §2, §3, §4, §5, §6

[14] = test system: PANC-1; assay: Inhibition of cells growth by colorimetric (SRB) assay, PANC-1
Summary of the method: as §1

[15] = read-out: GI50 A-549, SRB assay, 48 hours exposure

Nc1nccc(-c2c3cc4ccccc4nc3n3c(N)nccc23)n1 [Compound 19a]
TGI K-562 ([1]; SRB assay, 48 hours exposure): 6.42E−06
GI50 ([1]; read-out: GI50 K-562, SRB assay, 48 hours exposure): 1.78 µM
CC50 ([1]; read-out: LC50 K-562, SRB assay, 48 hours exposure): 25 µM
TGI LN-caP ([2]; SRB assay, 48 hours exposure): 2.18E−06
GI50 ([2]; read-out: GI50 LN-caP, SRB assay, 48 hours exposure): 0.736 µM
CC50 ([2]; read-out: LC50 LN-caP, SRB assay, 48 hours exposure): 22.5 µM
TGI IGROV-ET ([3]; SRB assay, 48 hours exposure): 4.98E−06
GI50 ([3]; read-out: GI50 IGROV-ET, SRB assay, 48 hours exposure): 1.41 µM
CC50 ([3]; read-out: LC50 IGROV-ET, SRB assay, 48 hours exposure): 14.5 µM
TGI IGROV ([4]; SRB assay, 48 hours exposure): 9.56E−06
GI50 ([4]; read-out: GI50 IGROV, SRB assay, 48 hours exposure): 1.85 µM
TGI A-549 ([5]; SRB assay, 48 hours exposure): 7.64E−06
GI50 [5, 15]: 3.24 µM
CC50 ([5]; read-out: LC50 A-549, SRB assay, 48 hours exposure): 18 µM
TGI HT-29 ([6]; SRB assay, 48 hours exposure): 3.05E−05
GI50 ([6]; read-out: GI50 HT-29, SRB assay, 48 hours exposure): 1.94 µM
TGI SK-BR-3 ([7]; SRB assay, 48 hours exposure): 1.68E−06
GI50 ([7]; read-out: GI50 SK-BR-3, SRB assay, 48 hours exposure): 0.477 µM
CC50 ([7]; read-out: LC50 SK-BR-3, SRB assay, 48 hours exposure): 8.58 µM
TGI MEL-28 ([8]; SRB assay, 48 hours exposure): 5.16E−06
GI50 ([8]; read-out: GI50 MEL-28, SRB assay, 48 hours exposure): 1.46 µM
CC50 ([8]; read-out: LC50 MEL-28, SRB assay, 48 hours exposure): 13.1 µM
TGI DU-145 ([9]; SRB assay, 48 hours exposure): 7.94E−07
GI50 ([9]; read-out: GI50 DU-145, SRB assay, 48 hours exposure): 0.00305 µM
CC50 ([9]; read-out: LC50 DU-145, SRB assay, 48 hours exposure): 3.79 µM
TGI LOVO-DOX ([10]; SRB assay, 48 hours exposure): 7.51E−06
GI50 ([10]; read-out: GI50 LOVO-DOX, SRB assay, 48 hours exposure): 1.03 µM
TGI LOVO ([11]; SRB assay, 48 hours exposure): 2.74E−06
GI50 ([11]; read-out: GI50 LOVO, SRB assay, 48 hours exposure): 0.467 µM
CC50 ([11]; read-out: LC50 LOVO, SRB assay, 48 hours exposure): 11.1 µM
TGI SKOV-3 ([12]; SRB assay, 48 hours exposure): 4.67E−06
GI50 ([12]; read-out: GI50 SKOV-3, SRB assay, 48 hours exposure): 1.14 µM
CC50 ([12]; read-out: LC50 SKOV-3, SRB assay, 48 hours exposure): 21.8 µM
TGI H-MEC-1 [13]: 6.72E−07
GI50 [13]: 0.123 µM
CC50 [13]: 3.82 µM
TGI PANC-1 ([14]; SRB assay, 48 hours exposure): 1.41E−05
GI50 ([14]; read-out: GI50 PANC-1, SRB assay, 48 hours exposure): 3.45 µM

COc1cccc(-c2c3cccnc3n3c(N)nccc23)c1 [Compound 62]
A-549 TGI ([5]; SRB assay, 48 hours exposure): 3.44E−05
CC50 ([5]; read-out: A-549 LC50, SRB assay, 48 hours exposure): 34.4 µM
GI50 [5, 15]: 34.4 µM
HT-29 TGI ([6]; SRB assay, 48 hours exposure): 3.44E−05
GI50 ([6]; read-out: HT-29 GI50, SRB assay, 48 hours exposure): 34.4 µM
CC50 ([6]; read-out: HT-29 LC50, SRB assay, 48 hours exposure): 34.4 µM
TGI H-MEC-1 [13]: 3.44E−05
GI50 [13]: 34.4 µM
CC50 [13]: 34.4 µM

COc1nccc(-c2c3c(O)ccnc3n3c(N)nccc23)n1 [Compound 105]
GI50 ([1]; Homo sapiens, K562, 48 h, read-out: GI50 K-562, SRB assay, 48 hours exposure): 12.8 µM
CC50 ([1]; Homo sapiens, K562, 48 h, read-out: LC50 K-562, SRB assay, 48 hours exposure): 32.4 µM
TGI K-562 ([1]; SRB assay, 48 hours exposure): 2.93E−05
GI50 ([2]; Homo sapiens, LNCaP, 48 h, read-out: GI50 LN-caP, SRB assay, 48 hours exposure): 5.48 µM
CC50 ([2]; Homo sapiens, LNCaP, 48 h, read-out: LC50 LN-caP, SRB assay, 48 hours exposure): 32.4 µM
TGI LN-caP ([2]; SRB assay, 48 hours exposure): 1.75E−05
GI50 ([3]; Homo sapiens, 48 h, read-out: GI50 IGROV-ET, SRB assay, 48 hours exposure): 8.17 µM
CC50 ([3]; Homo sapiens, 48 h, read-out: LC50 IGROV-ET, SRB assay, 48 hours exposure): 32.4 µM
TGI IGROV-ET ([3]; SRB assay, 48 hours exposure): 2.23E−05
GI50 ([4]; Homo sapiens, IGROV-1, 48 h, read-out: GI50 IGROV, SRB assay, 48 hours exposure): 6.26 µM
CC50 ([4]; Homo sapiens, IGROV-1, 48 h, read-out: LC50 IGROV, SRB assay, 48 hours exposure): 27.5 µM
TGI IGROV ([4]; SRB assay, 48 hours exposure): 1.31E−05
GI50 ([5]; Homo sapiens, A549, 48 h, read-out: GI50 A-549, SRB assay, 48 hours exposure): 7.49 µM
CC50 ([5]; Homo sapiens, A549, 48 h, read-out: LC50 A-549, SRB assay, 48 hours exposure): 32.4 µM
TGI A-549 ([5]; SRB assay, 48 hours exposure): 3.24E−05
GI50 ([6]; Homo sapiens, HT-29, 48 h, read-out: GI50 HT-29, SRB assay, 48 hours exposure): 32.4 µM
CC50 ([6]; Homo sapiens, HT-29, 48 h, read-out: LC50 HT-29, SRB assay, 48 hours exposure): 32.4 µM
TGI HT-29 ([6]; SRB assay, 48 hours exposure): 3.24E−05
GI50 ([7]; Homo sapiens, SK-BR-3, 48 h, read-out: GI50 SK-BR-3, SRB assay, 48 hours exposure): 2.42 µM
CC50 ([7]; Homo sapiens, SK-BR-3, 48 h, read-out: LC50 SK-BR-3, SRB assay, 48 hours exposure): 32.4 µM
TGI SK-BR-3 ([7]; SRB assay, 48 hours exposure): 1.26E−05
GI50 ([8]; Homo sapiens, SK-MEL-28, 48 h, read-out: GI50 MEL-28, SRB assay, 48 hours exposure): 13.8 µM
CC50 ([8]; Homo sapiens, SK-MEL-28, 48 h, read-out: LC50 MEL-28, SRB assay, 48 hours exposure): 32.4 µM
TGI MEL-28 ([8]; SRB assay, 48 hours exposure): 3.24E−05
GI50 ([9]; Homo sapiens, DU-145, 48 h, read-out: GI50 DU-145, SRB assay, 48 hours exposure): 14.2 µM
CC50 ([9]; Homo sapiens, DU-145, 48 h, read-out: LC50 DU-145, SRB assay, 48 hours exposure): 32.4 µM
TGI DU-145 ([9]; SRB assay, 48 hours exposure): 3.24E−05
GI50 ([10]; Homo sapiens, 48 h, read-out: GI50 LOVO-DOX, SRB assay, 48 hours exposure): 21.9 µM
CC50 ([10]; Homo sapiens, 48 h, read-out: LC50 LOVO-DOX, SRB assay, 48 hours exposure): 32.4 µM
TGI LOVO-DOX ([10]; SRB assay, 48 hours exposure): 3.24E−05
GI50 ([11]; Homo sapiens, LoVo, 48 h, read-out: GI50 LOVO, SRB assay, 48 hours exposure): 14.3 µM
CC50 ([11]; Homo sapiens, LoVo, 48 h, read-out: LC50 LOVO, SRB assay, 48 hours exposure): 32.4 µM
TGI LOVO ([11]; SRB assay, 48 hours exposure): 3.24E−05
GI50 ([12]; Homo sapiens, SK-OV-3, 48 h, read-out: GI50 SKOV-3, SRB assay, 48 hours exposure): 8.14 µM
CC50 ([12]; Homo sapiens, SK-OV-3, 48 h, read-out: LC50 SKOV-3, SRB assay, 48 hours exposure): 32.4 µM
TGI SKOV-3 ([12]; SRB assay, 48 hours exposure): 2.91E−05
GI50 ([14]; Homo sapiens, PANC-1, 48 h, read-out: GI50 PANC-1, SRB assay, 48 hours exposure): 11.8 µM
CC50 ([14]; Homo sapiens, PANC-1, 48 h, read-out: LC50 PANC-1, SRB assay, 48 hours exposure): 32.4 µM
TGI PANC-1 ([14]; SRB assay, 48 hours exposure): 3.24E−05
